# Laboratory results as given in patent US6169181A, “Compounds useful to treat retroviral infections” (Pharmacia & Upjohn Company, priority 1998, dated 2001).
# Where “and” joins values, the source holds several entries; their conditions need not be identical. Identical values can stand only once.
# Assays:
# HIV-1 protease [1] = biological target: T1, HIV-1 protease (Human immunodeficiency virus type 1 group M subtype B, UniProt P04585); assay: biochemical; conditions: Table I; read-out: HIV Protease FITC Assay Ki
# Experimental: The HIV protease screening assay is based on fluorescently labeled substrate which can be resolved from nonlabeled cleavage product using special beads coated with streptavidin. The substrate is biotinylated at the amino terminal arginine and fluorescently labeled with fluorescein isothiocynate (FITC) at the carboxyl terminal lysine. […] Substrate ([…] of 0.2 μM), sample (10 μl of desired concentraion), and enzyme (10 μl of 0.1 μM) are added to a 96 well pandex plate. The assay is run in 0.1 M sodium acetate buffer at pH 5.5 in the presence of 1.0 M sodium chloride and 0.05% NP-40 with incubated in the dark for one hour at room temperature. Strepavidin coated polystyrene beads {40 μl of 0.1% (w/v)} are added and the plate is incubated in the dark for an additional half hour. The labeled cleavage product is separated from the unreacted substrate via filtration and is read on the Idexx screen machine. The data are analyzed by appropriate computer algorithms to ascertain percent inhibition values.
# Determination of Ki values utilizes the same materials and equipment employed for percent inhibition studies. Two-fold serial dilutions are made for a given inhibitor from 2, 3 or 4 starting concentrations with a total of 24, 36 or 48 individual inhibitor concentrations. These dilutions are performed utilizing the BioMek robotics system. The assay consists of 10 μL of 40 nM HIV-1 protease, 10 μL of the various inhibitor concentrations, and 20 μL of 200 μM substrate (40 μL total). The reaction is allowed to proceed for 90 min at room temperature, terminated with 40 μL of avidin beads and processed (supra vide). An inhibitor with a known K; is run in parallel to verify the validity of the assay. The data is processed utilizing a computer program employing a nonlinear least square analysis of the data to generate the Ki values.
# HIV-1 protease [2] = biological target: T1, HIV-1 protease; assay: biochemical; conditions: Table I; for inhibition at 0.123 µM / inhibition at 0.37 µM / inhibition at 1.1 µM / inhibition at 3.3 µM / inhibition at 10 µM / inhibition at 30 µM: read-out: Protease % Inhib
# Experimental: The HIV protease screening assay is based on fluorescently labeled substrate which can be resolved from nonlabeled cleavage product using special beads coated with streptavidin. The substrate is biotinylated at the amino terminal arginine and fluorescently labeled with fluorescein isothiocynate (FITC) at the carboxyl terminal lysine. This assay has been employed to detect novel, nonpeptidic inhibitors of HIV-1 protease. Substrate (20 μM of 0.2 μM), sample (10 μl of desired concentraion), and enzyme (10 μl of 0.1 μM) are added to a 96 well pandex plate. The assay is run in 0.1 M sodium acetate buffer at pH 5.5 in the presence of 1.0 M sodium chloride and 0.05% NP-40 with incubated in the dark for one hour at room temperature. Strepavidin coated polystyrene beads {40 μl of 0.1% (w/v)} are added and the plate is incubated in the dark for an additional half hour. The labeled cleavage product is separated from the unreacted substrate via filtration and is read on the Idexx screen machine. The data are analyzed by appropriate computer algorithms to ascertain percent inhibition values.
SMILES,Ki (HIV-1 protease [1]),PROTEASE % INHIB. (HIV-1 protease [2]; Dose 0.123 μM),PROTEASE % INHIB. (HIV-1 protease [2]; Dose 0.370 μM),PROTEASE % INHIB. (HIV-1 protease [2]; Dose 1.100 μM),PROTEASE % INHIB. (HIV-1 protease [2]; Dose 3.300 μM),PROTEASE % INHIB. (HIV-1 protease [2]; Dose 10.000 μM),PROTEASE % INHIB. (HIV-1 protease [2]; Dose 30.000 μM),inhibition at 0.123 µM (HIV-1 protease [2]; Dose 0.123 μM),inhibition at 0.37 µM (HIV-1 protease [2]; Dose 0.370 μM),inhibition at 1.1 µM (HIV-1 protease [2]; Dose 1.100 μM),inhibition at 3.3 µM (HIV-1 protease [2]; Dose 3.300 μM),inhibition at 10 µM (HIV-1 protease [2]; Dose 10.000 μM),inhibition at 30 µM (HIV-1 protease [2]; Dose 30.000 μM)
"CCCC1(CCC)CC(O)=C(C(CC)c2cccc(NS(=O)(=O)c3cccc4cccnc34)c2)C(=O)O1 (single isomer, unassigned) [Example 54, (S or R)-N-[3-[1-(4-Hydroxy-2-oxo-6,6-dipropyl-5,6-dihydro-2H-pyran-3-yl)-propyl]-phenyl]-8-quinolinesulfonamide]",13.3 nM,46.64%,72.41%,87.91%,89.11%,87.77%,91.99%,,,,,,
"CCCC1(CCC)CC(O)=C(C(CC)c2cccc(NS(=O)(=O)c3cn(C)cn3)c2)C(=O)O1 (single isomer, unassigned) [Example 55, (S or R)-N-[3-[1-(4-hydroxy-2-oxo-6,6-dipropyl-5,6-dihydro-2H-pyran-3-yl)-propyl]-phenyl]-1-methyl-1H-imidazole-4-sulfonamide]",1.7 nM,< 10%,18.77%,58.27%,86.98%,98.33%,85.88%,,,,,,
"CCCC1(CCC)CC(O)=C(C(c2cccc(NS(=O)(=O)c3cn(C)cn3)c2)C2CC2)C(=O)O1 (single isomer, unassigned) [Example 56, (R or S)-N-[3-[1-(4-Hydroxy-2-oxo-6,6-dipropyl-5,6-dihydro-2H-pyran-3-yl)-cyclopropylmethyl]-phenyl]-1-methyl-1H-imidazole-4-sulfonamide]",0.23 nM,,,,,,,104%,108%,105%,105%,115%,111%
"CCCC1(CCC)CC(O)=C(C(c2cccc(NS(=O)(=O)c3cn(C)cn3)c2)C2CC2)C(=O)O1 (single isomer, unassigned) [Example 57]",0.36 nM,99.07%,105.17%,110.68%,97.8%,104.74%,115.02%,,,,,,
"CC[C@H](Cc1ccccc1)c1cc(O)c(C(c2cccc(NS(=O)(=O)c3cn(C)cn3)c2)C2CC2)c(=O)o1 (single isomer, unassigned) [Example 137, N-(3-(R or S)-{Cyclopropyl-[6-(1-(R)-ethylphenethyl)-4-hydroxy-2-oxo-2H-pyran-3-yl]-methyl}-phenyl)-1-methyl-1H-imidazole-4-sulfonamide]",0.52 nM and 0.7 nM,,,,,,,98.8%,91.5%,101%,110%,98.2%,93.8%
"CC[C@H](Cc1ccccc1)c1cc(O)c(C(c2cccc(NS(=O)(=O)c3cn(C)cn3)c2)C2CC2)c(=O)o1 (single isomer, unassigned) [Example 138, N-(3-(R or S)-[Cyclopropyl-[6-(l-(R)-ethylphenethyl)-4-hydroxy-2-oxo-2H-pyran-3-yl]-methyl}-phenyl)-1-methyl-1H-imidazole-4-sulfonamide]",0.73 nM and 1.4 nM,,,,,,,101%,95.5%,101%,99.6%,94.8%,105%
"CC[C@@H](Cc1ccccc1)c1cc(O)c(C(c2cccc(NS(=O)(=O)c3cn(C)cn3)c2)C2CC2)c(=O)o1 (single isomer, unassigned) [Example 139, N-(3-(R or S)-{Cyclopropyl-[6-(1-(S)-ethylphenethyl)-4-hydroxy-2-oxo-2H-pyran-3-yl]-methyl}-phenyl)-1-methyl-1H-imidazole-4-sulfonamide]",1.89 nM,,,,,,,98.3%,101%,105%,99.3%,99.3%,103%
"CC[C@@H](Cc1ccccc1)c1cc(O)c(C(c2cccc(NS(=O)(=O)c3cn(C)cn3)c2)C2CC2)c(=O)o1 (single isomer, unassigned) [Example 140, N-(3-(R or S)-{Cyclopropyl-[6-(1-(S)-ethylphenethyl)-4-hydroxy-2-oxo-2H-pyran-3-yl]-methyl}-phenyl)-1-methyl-1H-imidazole-4-sulfonamide]",1.44 nM,103.22%,96.01%,107.37%,112.51%,112.53%,119.14%,,,,,,
"CC[C@H](Cc1ccccc1)c1cc(O)c(C(c2cccc(NS(=O)(=O)c3ccccn3)c2)C2CC2)c(=O)o1 (single isomer, unassigned) [Example 141, N-(3-(R or S)-{Cyclopropyl-[6-(1-(R)-ethylphenethyl)-4-hydroxy-2-oxo-2H-pyran-3-yl]-methyl}-phenyl)-2-pyridinesulfonamide]",1.4 nM,,,,,,,78.7%,88.7%,92%,88.3%,97.8%,98.5%
"CC[C@H](Cc1ccccc1)c1cc(O)c(C(c2cccc(NS(=O)(=O)c3ccccn3)c2)C2CC2)c(=O)o1 (single isomer, unassigned) [Example 142, N-(3-(R or S)-{Cyclopropyl-[6-(1-(R)-ethylphenethyl)-4-hydroxy-2-oxo-2H-pyran-3-yl]-methyl}-phenyl)-2-pyridinesulfonamide]",1.6 nM,78.01%,92.52%,106.64%,105.15%,110.58%,106.77%,,,,,,
"CC[C@H](Cc1ccccc1)c1cc(O)c(C(c2cccc(NS(=O)(=O)c3nccn3C)c2)C2CC2)c(=O)o1 (single isomer, unassigned) [Example 143, N-(3-(R or S)-{Cyclopropyl-[6-(1-(R)-ethylphenethyl)-4-hydroxy-2-oxo-2H-pyran-3-yl]-methyl}-phenyl)-1-methyl-1H-imidazole-2-sulfonamide]",0.8 nM,,,,,,,80.8%,97.7%,105%,102%,101%,103%
"CC[C@H](Cc1ccccc1)c1cc(O)c(C(c2cccc(NS(=O)(=O)c3nccn3C)c2)C2CC2)c(=O)o1 (single isomer, unassigned) [Example 144, N-(3-(R or S)-{Cyclopropyl-[6-(1-(R)-ethylphenethyl)-4-hydroxy-2-oxo-2H-pyran-3-yl]-methyl}-phenyl)-1-methyl-1H-imidazole-2-sulfonamide]",1.2 nM,80.58%,87.39%,93.82%,100.01%,98.12%,95.88%,,,,,,
"CC[C@H](Cc1ccccc1)c1cc(O)c(C(c2cccc(NS(=O)(=O)c3ccc(C#N)cc3)c2)C2CC2)c(=O)o1 (single isomer, unassigned) [Example 148, N-(3-(R or S)-{Cyclopropyl-[6-(1-(R)-ethylphenethyl)-4-hydroxy-2-oxo-2H-pyran-3-yl]-methyl}-phenyl)-4-cyanobenzenesulfonamide]",4.77 nM and 18.1 nM,,,,,,,81.3%,91.7%,95.6%,90%,99.2%,93.5%
